Where two headings read alike, the source gives them in different places.

For orientation: LC50 means the concentration lethal to half of the exposed cells or organisms.

In the assay the test system is Hep3B cells (hepatocellular carcinoma cell line). In words: In vitro MTS cell viability assay (NCI-60 methodology), Hep3B. It is filed as cell-based. Conditions: Homo sapiens, 48 h, 2 days drug incubation, 50% reduction vs time zero, read-out: Hep3B LC50. The method, then: The cell viability measurement is based on the NCI-60 screening methodology (Nat. Rev. Cancer 6, 813-823, 2006). Briefly, cells are inoculated into 96-well plates at the optimal plating density. After 24 h, one of the two plates for Hep3B cell line is processed to determine a time zero cell viability (Tz) by MTS assay (Promega). Compounds are added over a 2-fold serial dilution to provide a total five drug concentrations plus DMSO control. Plates are incubated for a further 2 days, then measured cell viability by MTS assay [control growth (C) and test growth in the presence of drug at the five concentration levels (Ti)]. The LC50 is calculated from [(Ti−Tz)/Tz]×100=−50, which is the drug concentration resulting in a 50% reduction at the end of the drug treatment as compared to that at the beginning.
The compounds prepared in Tables 1-10 were tested in three in vitro assays, and the results are shown in Tables 1-10 for Hep3B and Table 11 for SW480 and NCI-H460 shown below. Herein, Hep3B refers to hepatocellular carcinoma cell line, SW480 refers to colon adenocarcinoma cell line, and NCI-H460 refers to human lung cancer cell line.
Shown in following Tables 1 to 10 are the structures and in vitro activities of exemplary compounds of formula (I).
On the technique in general: Tetrazolium assays rely on reduction of a dye to a coloured formazan, in cell work by metabolically active cells.

As to `CCOC(=O)N1CCC(n2ncc3c(NC(=O)c4ccc([N+](=O)[O-])s4)nc(-c4ccc(F)nc4)nc32)C1` [Compound 8-5, ethyl (S)-3-(6-(6-fluoropyridin-3-yl)-4-(5-nitrothiophene-2-carboxamide)-1H-pyrazolo[3,4-d]pyrimidin-1-yl)pyrrolidine-1-carboxylate], the LC50 (Table 8, MTS) is above 2000 nM. With `CCOCCOCCOc1nc(NC(=O)c2ccc([N+](=O)[O-])s2)c2cnn(-c3ccccc3)c2n1` [Compound 5-10, N-(6-(2-(2-ethoxyethoxy)ethoxy)-1-phenyl-1H-pyrazolo[3,4-d]pyrimidin-4-yl)-5-nitrothiophene-2-carboxamide], the LC50 (Table 5, MTS) is above 5000 nM. For the compound `C[C@@H]1C[C@@H](n2ncc3c(NC(=O)c4ccc([N+](=O)[O-])s4)nc(-c4ccc(F)cc4)nc32)CC(C)(C)C1` [Compound 8-13, N-(6-(4-fluorophenyl)-1-((1R,5S)-3,3,5-trimethylcyclohexyl)-1H-pyrazolo[3,4-d]pyrimidin-4-yl)-5-nitrothiophene-2-carboxamide], the LC50 (Table 8, MTS) was found to be 900 nM. Consider `O=C(Nc1nc(-c2ccc(F)cc2)nc2c1cnn2-c1ccc(F)cc1F)c1ccc([N+](=O)[O-])s1` [Compound 7-12], for which, under “Table 7, MTS”, the 50% lethal concentration (LC50) amounted to 430 nM. On to `CC(C)(C)OC(=O)N1CCC(n2cnc3c(NC(=O)c4ccc([N+](=O)[O-])s4)nc(-c4ccc(F)cc4)nc32)CC1` [Compound 4-20, tert-butyl 4-(2-(4-fluorophenyl)-6-(5-nitrothiophene-2-carboxamide)-9H-purin-9-yl) piperidine-1-carboxylate], for which, where the note is “Table 4, MTS”, the LC50 is above 1250 nM. On to `Cc1csc2c(NC(=O)c3ccc([N+](=O)[O-])s3)nc(-c3ccc(C(C)(C)C)cc3)nc12` [Compound 4-1], for which the median lethal concentration (LC50) (Table 4, MTS) came to 1150 nM. On to `CC(C)(C)c1ccc(-n2ncc3c(NC(=O)c4ccc([N+](=O)[O-])s4)nc(-n4cc(C(F)(F)F)cn4)nc32)cc1` [Compound 6-78, N-(1-(4-(ter-butyl)phenyl)-6-(4-(trifluoromethyl)-1H-pyrazol-1-yl)-1H-pyrazolo[3,4-d]pyrimidin-4-yl)-5-nitrothiophene-2-carboxamide], for which the LC50 (Table 6, MTS) was found to be 570 nM.

For `O=C(Nc1nc(N2CCC(F)(F)CC2)nc2c1cnn2-c1ccc(F)cc1)c1ccc([N+](=O)[O-])s1` [Compound 6-98, N-(6-(4,4-difluoropiperidin-1-yl)-1-(4-fluorophenyl)-1H-pyrazolo[3,4-d]pyrimidin-4-yl)-5-nitrothiophene-2-carboxamide], for the setting “Table 6, MTS”, the 50% lethal concentration (LC50) was 430 nM. In the case of `COc1ccc(-c2nc(NC(=O)c3ccc([N+](=O)[O-])s3)c3cnn(C4CCCCC4)c3n2)cn1` [Compound 10-21, N-(1-cyclohexyl-6-(6-methoxypyridin-3-yl)-1H-pyrazolo[3,4-d]pyrimidin-4-yl)-5-nitrothiophene-2-carboxamide], where the note is “Table 10, MTS”, the LC50 stood at 1120 nM. Take `O=C(Nc1nc(-c2ccc(OCC(F)(F)C(F)F)nc2)nc2c1cnn2C1CCCCC1)c1ccc([N+](=O)[O-])s1` [Compound 10-52, N-(1-cyclohexyl-6-(6-(2,2,3,3-tetrafluoropropoxy)pyridin-3-yl)-1H-pyrazolo[3,4-d]pyrimidin-4-yl)-5-nitrothiophene-2-carboxamide]: the median lethal concentration (LC50) (Table 10, MTS) amounted to 420 nM. For `Cc1ccccc1-n1ncc2c(NC(=O)c3ccc([N+](=O)[O-])s3)nc(N3CCC[C@H]3CO)nc21` [Compound 6-1, (S)—N-(6-(2-(hydroxymethyl)pyrrolidin-1-yl)-1-(o-tolyl)-1H-pyrazolo[3,4-d]pyrimidin-4-yl)-5-nitrothiophene-2-carboxamide], the median lethal concentration (LC50) (Table 6, MTS) was above 3000 nM.

In the case of `O=C(Nc1nc(-c2ccc3c(c2)OCCO3)nc2c1cnn2C1CCCCC1)c1ccc([N+](=O)[O-])s1` [Compound 10-37, N-(1-cyclohexyl-6-(2,3-dihydrobenzo[b][1.4]dioxin-6-yl)-1H-pyrazolo[3,4-d]pyrimidin-4-yl)-5-nitrothiophene-2-carboxamide], the LC50 (Table 10, MTS) turned out to be 1940 nM. Take `Cc1nn(C)c2c(NC(=O)c3ccc([N+](=O)[O-])s3)nc(-c3cccc(C(F)(F)F)c3)nc12` [Compound 3-2, N-(1,3-dimethyl-5-(3-(trifluoromethyl)phenyl)-1H-pyrazolo[4,3-d]pyrimidin-7-yl)-5-nitrothiophene-2-carboxamide]: the median lethal concentration (LC50) (Table 3, MTS) was found to be 860 nM. `Cc1csc2c(NC(=O)c3ccc([N+](=O)[O-])s3)nc(-c3cccc(F)c3)nc12` [Compound 4-7, N-(2-(3-fluorophenyl)-7-methylthieno[3,2-d]pyrimidin-4-yl)-5-nitrothiophene-2-carboxamide]: the LC50 (Table 4, MTS) was determined as 1280 nM. `CCOCCOC(=O)N1CCC(n2ncc3c(NC(=O)c4ccc([N+](=O)[O-])s4)nc(-c4ccc(Cl)cc4)nc32)CC1` [Compound 9-13, 2-ethoxyethyl 4-(6-(4-chlorophenyl)-4-(5-nitrothiophene-2-carboxamido)-1H-pyrazolo [3,4-d]pyrimidin-1-yl)piperidine-1-carboxylate]: under “Table 9, MTS”, the 50% lethal concentration (LC50) turned out to be 1620 nM. As to `CCCOc1ccc(-c2nc(NC(=O)c3ccc([N+](=O)[O-])s3)c3cnn(-c4ccc(OC)cc4)c3n2)cn1` [Compound 6-25], for the setting “Table 6, MTS”, the LC50 came out at 210 nM. In the case of `CC(C)n1ncc2c(NC(=O)c3ccc([N+](=O)[O-])s3)nc(-c3ccc(C(C)(C)C)cc3)nc21` [Compound 1-23, N-(6-(4-(tert-butyl)phenyl)-1-isopropyl-1H-pyrazolo[3,4-d]pyrimidin-4-yl)-5-nitrothiophene-2-carboxamide], the median lethal concentration (LC50) (Table 1, MTS) came out at 1570 nM. As for `Cc1csc2c(-c3ccc(OC(F)(F)F)cc3)nc(NC(=O)c3ccc([N+](=O)[O-])s3)nc12` [Compound 2-8, N-(7-methyl-4-(4-(trifluoromethoxy)phenyl)thieno[3,2-d]pyrimidin-2-yl)-5-nitrothiophene-2-carboxamide], the LC50 (Table 2, MTS) came out at 1710 nM. As for `COc1ccc(-n2ncc3c(NC(=O)c4ccc([N+](=O)[O-])s4)nc(OC4CCCCC4)nc32)cc1` [Compound 6-16, N-(6-(cyclohexyloxy)-1-(4-methoxyphenyl)-1H-pyrazolo[3,4-d]pyrimidin-4-yl)-5-nitrothiophene-2-carboxamide], the median lethal concentration (LC50) (Table 6, MTS) was 1360 nM.

As for `CN(C)c1ccc(-c2nc(NC(=O)c3ccc([N+](=O)[O-])s3)c3cnn(C)c3n2)cc1` [Compound 1-10, N-(6-(4-(dimethylamino)phenyl)-1-methyl-1H-pyrazolo[3,4-d]pyrimidin-4-yl)-5-nitrothiophene-2-carboxamide], the LC50 (Table 1, MTS) was above 5000 nM.

Consider `O=C(Nc1nc(N2CC[C@H](O)C2)nc2c1cnn2-c1ccccc1)c1ccc([N+](=O)[O-])s1` [Compound 5-4, (S)—N-(6-(3-hydroxypyrrolidin-1-yl)-1-phenyl-1H-pyrazolo[3,4-d]pyrimidin-4-yl)-5-nitrothiophene-2-carboxamide], for which the LC50 (Table 5, MTS) was 1010 nM. As to `COc1ccc(-c2nc(NC(=O)c3ccc([N+](=O)[O-])s3)c3cnn(-c4ccccc4)c3n2)cc1` [Compound 5-36, N-(6-(4-methoxyphenyl)-1-phenyl-1H-pyrazolo[3,4-d]pyrimidin-4-yl)-5-nitrothiophene-2-carboxamide], the median lethal concentration (LC50) (Table 5, MTS) amounted to 600 nM.

Turning to `O=C(Nc1nc(-c2ccc(F)cc2F)nc2c1cnn2-c1ccc(C(F)(F)F)cn1)c1ccc([N+](=O)[O-])s1` [Compound 7-6], the LC50 (Table 7, MTS) was found to be 150 nM.

On to `CCOC(=O)N1CCC(n2ncc3c(NC(=O)c4ccc([N+](=O)[O-])s4)nc(-c4ccc(F)nc4)nc32)CC1` [Compound 9-2, ethyl 4-(6-(6-fluoropyridin-3-yl)-4-(5-nitrothiophene-2-carboxamide)-1H-pyrazolo [3,4-d]pyrimidin-1-yl)piperidine-1-carboxylate], for which the median lethal concentration (LC50) (Table 9, MTS) is above 5000 nM. Take `O=C(Nc1nc(-c2cccc(F)c2)nc2c1cnn2-c1cccc(Cl)c1)c1ccc([N+](=O)[O-])s1` [Compound 6-34, N-(1-(3-chlorophenyl)-6-(3-fluorophenyl)-1H-pyrazolo[3,4-d]pyrimidin-4-yl)-5-nitrothiophene-2-carboxamide]: under “Table 6, MTS”, the 50% lethal concentration (LC50) worked out at 190 nM. On to `O=C(Nc1nc(-c2ccc(F)cc2)nc2c1cnn2-c1ccc(Cl)cc1)c1ccc([N+](=O)[O-])s1` [Compound 6-48, N-(1-(4-chlorophenyl)-6-(4-fluorophenyl)-1H-pyrazolo[3,4-d]pyrimidin-4-yl)-5-nitrothiophene-2-carboxamide], for which, under “Table 6, MTS”, the 50% lethal concentration (LC50) stood at 180 nM. On to `O=C(Nc1nc(-c2cc(F)cc(F)c2)nc2c1cnn2C1CCCCC1)c1ccc([N+](=O)[O-])s1` [Compound 10-41], for which, where the note is “Table 10, MTS”, the median lethal concentration (LC50) came to 790 nM. With `Cc1ccc(-n2ncc3c(NC(=O)c4ccc([N+](=O)[O-])s4)nc(N4CCC[C@H]4CO)nc32)cc1` [Compound 6-3, (S)—N-(6-(2-(hydroxymethyl)pyrrolidin-1-yl)-1-(p-tolyl)-1H-pyrazolo[3,4-d]pyrimidin-4-yl)-5-nitrothiophene-2-carboxamide], where the note is “Table 6, MTS”, the LC50 was 870 nM.
